Results from a melting point compilation (Tetko et al.).

Row | SMILES | melting point [°C]
1 | O=c1oc2ccccc2c(O)c1C(CC(O)c1ccc(-c2ccc(Br)cc2)cc1)c1ccccc1 (stereo not drawn) | 199
2 | CCCCCCNC(=O)C=Cc1ccc(O)c(O)c1 | 142
3 | CC(=O)NCCc1c[nH]c2ccc(O)cc12 | 120 to 122
4 | CC1=C(C(=O)OC(C)C)C(c2ccco2)NC(=S)N1 (stereo not drawn) | 191
5 | CC(C)(CCCC(C)(C)C(=O)O)C(=O)O | 169 to 171
6 | Cc1cc(C(C)(C)C)nc(C(C)(C)C)c1 | 33 to 36
7 | COC(=O)c1ccc(Cl)nc1 | 86
8 | Cc1nc(NC(=O)NS(=O)(=O)c2cccs2)nc(O)c1C | 219 to 221
9 | Cc1ccc(N)c(C(=O)NN)c1 | 133 to 134
10 | CC(C)C(Br)C(=O)NC(N)=O (stereo not drawn) | 154
11 | COc1cc(C)cc2c1C(=O)C2 | 93
12 | C=CCC1(C(C)CC)C(=O)NC(=O)NC1=O (stereo not drawn) | 109
13 | O=C(C=Cc1cccc(O)c1)c1ccccc1 | 156 to 158
14 | OCc1ccc(-c2ccccn2)s1 | 86 to 88
15 | O=C(O)C1CC2CCC1C2 (stereo not drawn) | 40
16 | C=CC(=O)N1CCN(C(=O)C=C)CC1 | 93
17 | CC(C)(C)c1cc(C(C)(C)C)c(O)c(C(C)(C)C)c1 | 131
18 | Nc1ccc(C(=O)O)cc1N | 215
19 | CNC(=O)CCl | 46
20 | CC(NC(=O)CCCCNC(=O)C12CC3CC(CC(C3)C1)C2)[P+]([O-])(Oc1ccccc1)Oc1ccccc1 (stereo not drawn) | 150
21 | NC1=NC(=O)C(c2ccccc2)O1 (stereo not drawn) | 256
22 | N#C/C(=N\Nc1ccc([N+](=O)[O-])cc1)c1nc2ccccc2c(=O)[nH]1 | 273
23 | O=C(O)CCc1ccc(Br)cc1 | 135
24 | CC(Cc1ccc(O)c(O)c1)(NN)C(=O)O (stereo not drawn) | 208

Row | SMILES | melting point [°C]
25 | O=S(=O)(Cl)c1ccc(S(=O)(=O)N2CCOCC2)cc1 | 150 to 152
26 | NC(=O)C1CC1(Cl)Cl (stereo not drawn) | 148 to 149
27 | c1cc(-c2n[nH]c(-c3ccncc3)n2)ccn1 | 242
28 | c1coc(CSCc2ccco2)c1 | 31
29 | CCCCCCCCCCCCCCCCCCC(C)c1ccccc1 (stereo not drawn) | 29
30 | O=S1CCC1 | 31.5
31 | Nc1cccc(C=CC(=O)c2ccccc2)c1 | 159
32 | O=c1oc(=O)c2cc3c(=O)oc(=O)c3cc12 | 283 to 287
33 | FC(F)(Cl)CBr | -76
34 | CC1(C)OC(=O)C(=Cc2ccccc2F)C(=O)O1 | 142
35 | NC(=O)OCCCl | 75.5
36 | N#CCS(=O)(=O)c1cccs1 | 84
37 | CC(=O)c1ccc2c(c1)OCO2 | 86 to 89
38 | c1ccc(/N=N/c2ccccc2NNc2ccccc2)cc1 | 99
39 | O=Cc1cccc(-c2cncnc2)c1 | 148 to 149
40 | O=C(O)Cc1ccsc1 | 79
41 | CCCCCC1=CCCC1 | -83
42 | CC1(C)N=C(N)N=C(N)N1c1ccc(Cl)cc1 | 146
43 | N#Cc1c(-c2cccc(O)c2)c(C#N)c(=O)n(N)c1N | 323
44 | Cc1cc(C)c(C=O)[nH]1 | 90 to 91
45 | O=C(c1ccccc1)N1CCNCC1 | 63 to 64
46 | CCC1CC(NC(C)=O)CC(C)(C)N1O (stereo not drawn) | 142 to 145
47 | OCC1OC(n2cnc3c(NCc4ccccc4)ncnc32)C(O)C1O (stereo not drawn) | 184 to 186
48 | CC(=O)CC(O)C(Cl)(Cl)Cl (stereo not drawn) | 75 to 76

Row | SMILES | melting point [°C]
49 | Fc1cccc2cc[nH]c12 | 62
50 | CCO[P@](=O)(c1ccc(OC)cc1)N1Cc2ccccc2C[C@@H]1C(=O)NO | 167
51 | N#CC(C#N)=c1c(F)c(F)c(=C(C#N)C#N)c(F)c1F | 291
52 | CC(Oc1ccc(OC(F)(F)F)cc1)C(=O)O (stereo not drawn) | 76 to 78
53 | Oc1c(Cl)c(Cl)c(Cl)c(Cl)c1Cl | 191
54 | N#Cc1ccc(N2CCNCC2)nc1 | 131
55 | O=S(=O)(Cl)Cc1ccc(C(F)(F)F)cc1 | 104 to 106
56 | OCc1ccc(-c2ccco2)cc1 | 85 to 86
57 | Nc1c2ccccc2nc2ccccc12 | 241
58 | O=C(NC(=O)c1c(F)cccc1F)Nc1ccc(Cl)cc1 | 239
59 | O=C(C1CCCCC1)N1CC(=O)N2CCc3ccccc3C2C1 (stereo not drawn) | 136
60 | CCCCCCC(O)CCCCCCCCCCC(=O)O (stereo not drawn) | 77.8
61 | Cc1oncc1C(=O)O | 147
62 | COc1ccc2c(CCN)c[nH]c2c1 | 143 to 146
63 | Nc1nc(-c2ccc(Br)cc2)cs1 | 184
64 | OCc1cccc2nonc12 | 72
65 | OCCCCCCCCCCCCCCO | 85.8
66 | COc1cccc(O)c1 | -17
67 | CC(C(O)c1ccccc1)N(C)C (stereo not drawn) | 87.5
68 | O=C(Oc1ccc2ccccc2c1)c1ccccc1O | 95.5
69 | C=C(C)C(=O)NCO | -37
70 | O=C1C=C(Nc2ccccc2)CCC1 | 178 to 182

Further lines, results first:

Row | melting point [°C] | SMILES
71 | 229 to 230 | CC(C)n1c2c(c(=O)[nH]c1=O)CCCC2
72 | 48 to 52 | C=CCc1cc(C=O)c(O)c(OC)c1
73 | 194 | CCCCNC(=O)c1ccc2cc(O)c(O)cc2c1
74 | 112 | CCNC(N)=S
75 | 186 | NNC(=O)c1cc2ccccc2s1
76 | 84 | O=C(NC(=O)C(F)(F)F)C(F)(F)F
77 | 150 | CC1(C)C(=O)NC1c1ccccc1 (stereo not drawn)
78 | 253 | [O-][N+](=Nc1ccc(N=Nc2ccccc2)cc1)c1ccc(N=Nc2ccc(N=Nc3ccccc3)cc2)cc1
79 | 16 | COc1ccc(Br)cc1F
80 | 42.3 | CCOC(=O)c1ccc(COC(C)=O)o1
81 | 91 | Cc1c(Br)cc(N)cc1Br
82 | 200 | Brc1c(Br)c(Br)c(Oc2ccccc2)c(Br)c1Br
83 | 233 to 234 | Nc1ccc(O)cc1C(=O)O
84 | -19 | CCCCC=CC(=O)O
85 | 264 | Cc1cccc(NC=C2C(=O)NN=C2c2c(O)c3ccccc3n(C)c2=O)c1
86 | 60 to 62 | CNCc1ccc(N2CCN(C(=O)OC(C)(C)C)CC2)cc1
87 | 187 to 188 | CCOC(=O)c1c(NC(=O)CN2CCN(c3ccccc3)CC2)sc2c1CCCC2
88 | 264 to 266 | Cc1cc(C)c2c(=O)n(-c3cccc(C(F)(F)F)c3)c(=O)[nH]c2n1
89 | 132 | CC(C)(C)OC(=O)N[C@@H](Cc1ccc(Cl)cc1Cl)C(=O)O
90 | 143 | O=C(O)C=Cc1ccc(F)c(C(F)(F)F)c1
91 | 300 | CC(=O)Nc1c(I)c(NC(C)=O)c(I)c(C(=O)O)c1I

Row | melting point [°C] | SMILES
92 | 189 to 192 | O=C(O)c1cc2ccccn2n1
93 | 120 to 122 | NC(=S)c1ccccc1N
94 | 91 to 93 | CC(C)(C)OC(=O)N1CCC(Oc2ccccc2[N+](=O)[O-])CC1
95 | 113 | COc1c(C)c(C)c(OC)c2c1CC2Cl (stereo not drawn)
96 | 88 | O=C(O)C1(C(F)(F)F)CC1
97 | 197 | On1nnc2ccc(Cl)cc21
98 | 148 | Cc1ccc([C@@H]2CC(=O)[C@@H](c3ccccc3)[C@H](c3ccc(C)cc3)N2)cc1
99 | 120 to 122 | O=C(Nc1ccc([N+](=O)[O-])cc1[N+](=O)[O-])C(C(F)(F)F)C(F)(F)F
100 | 171 | O=c1nc2ccccc2nc(C(F)(F)F)c1NNc1cccc2ccccc12
101 | 308 | O=C(O)c1ccc(SSc2ccc(C(=O)O)cc2[N+](=O)[O-])c([N+](=O)[O-])c1
102 | 177 | C/C(=N\c1ccc(C(=O)O)c(O)c1)c1c(O)c2ccccc2n(-c2ccccc2)c1=O
103 | 120 | C=C1C2CCC3C(CCC4C5(C)CCCC43C3OCCN3C5)(C2)C1O (stereo not drawn)
104 | 57 | CCOC(=O)c1ccc(N=C=S)cc1
105 | 122 to 126 | O=C(NC(CO)C(=O)O)OCc1ccccc1 (racemic)
106 | 166 | O=C1CCC(=O)N1CN1C(=O)C(=Cc2ccco2)SC1=S
107 | 111 | OCC1(O)CC(O)C(O)CO1 (stereo not drawn)
108 | 124 | C1CN(SSN2CCOCC2)CCO1
109 | 121 | O=C(O)C(Cc1ccccc1)C(=O)O
110 | 144 | NS(=O)(=O)c1cccc(C(=O)c2ccccc2)c1
111 | 44 | CC(=O)CCCCC(C)=O
112 | 186 | CC1(C)CC(=O)C(=NNc2cccc([N+](=O)[O-])c2)C(=O)C1

Row | melting point [°C] | SMILES
113 | 168 to 170 | O=C(O)c1cc(S(=O)(=O)Cl)ccc1O
114 | 120 | O=CN(O)CC(=O)O
115 | 68 | CC(=O)c1ccc(C2CCCCC2)cc1
116 | 178 | O=CC(O)C1OC(=O)C(O)C1O (stereo not drawn)
117 | 190 | CC(=O)Nc1ccccc1-c1onc(-c2ccccc2)c1-c1ccccc1
118 | 109 to 110 | Cc1ccc(S(=O)(=O)CC(=O)c2ccccc2)cc1
119 | 195 | CCCCC(=O)OCC(=O)C1C(C)CC2C3CC(F)C4=CC(=O)C=CC4(C)C3(F)C(O)CC21C (stereo not drawn)
120 | 9 | CCN(CC)C(=O)SCc1ccccc1Cl
121 | 35 | CC(=O)c1cc(F)c(Cl)cc1Cl
122 | 166 | O=[N+]([O-])c1ccc(C=NNc2ccccc2)cc1
123 | 51.5 | Cc1cc(C)oc(=O)c1
124 | 105 to 108 | NS(=O)(=O)c1ccc(Sc2cccs2)s1
125 | 311 | N#CC1C(=S)NC2(C(=O)Nc3ccccc32)C2=C1CCC2 (stereo not drawn)
126 | 45 to 46 | Cc1cc(Br)ccc1N=C=S
127 | 200 | CC(=O)C(C(=O)OC1CC(C)CCC1C(C)C)C(C)C(C(C)=O)C(=O)OC1CC(C)CCC1C(C)C (stereo not drawn)
128 | 46 | CCS(=O)(=O)CCO
129 | 96 | NC(=O)c1cccc(C(F)(F)F)c1F
130 | 155 to 156 | FC(F)(F)c1ccc(-c2nnc(S)o2)cc1
131 | 18.9 | CC(=O)OC(C)OC(C)=O
132 | 73 | Cc1cc(N)c2ncccc2c1
133 | 133 | Cc1ccc([N+](=O)[O-])cc1S(=O)(=O)O
